From patent US20050009789A1, “Cyclooxygenase inhibition with nitroxyl” (The Government of the USA as represented by the Secretary …, priority 2003, published 2005)
pIC50: −log10 of the molar value. “And” between values parts separate entries of the source, which are not always exact repeats. Equal values may be shown once. One block for each compound: values may come before it.

Assays:
COX-2 = molecular target: T1, COX-2 (Ovis aries, UniProt P79208); test: COX-2 inhibition, prostaglandin (PGF2α) enzyme immunoassay; type: biochemical
T1 construct: purchased Cayman Chemical #560101
T1 sequence (P79208 17-603): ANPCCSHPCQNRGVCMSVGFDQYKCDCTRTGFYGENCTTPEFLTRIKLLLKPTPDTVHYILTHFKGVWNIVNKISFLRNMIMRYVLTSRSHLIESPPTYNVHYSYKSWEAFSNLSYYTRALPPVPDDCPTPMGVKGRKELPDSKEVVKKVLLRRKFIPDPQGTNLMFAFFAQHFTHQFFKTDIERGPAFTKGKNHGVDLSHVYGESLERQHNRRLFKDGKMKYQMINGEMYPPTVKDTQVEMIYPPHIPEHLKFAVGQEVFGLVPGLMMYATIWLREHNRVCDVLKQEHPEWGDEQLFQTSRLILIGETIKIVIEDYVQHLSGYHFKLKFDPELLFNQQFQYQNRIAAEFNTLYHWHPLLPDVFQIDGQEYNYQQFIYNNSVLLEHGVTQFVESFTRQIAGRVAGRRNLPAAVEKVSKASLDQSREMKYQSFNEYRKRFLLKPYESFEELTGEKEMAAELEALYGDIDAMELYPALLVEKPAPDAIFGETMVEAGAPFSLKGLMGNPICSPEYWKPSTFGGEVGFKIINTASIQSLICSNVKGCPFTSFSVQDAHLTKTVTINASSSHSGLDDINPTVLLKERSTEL
Excerpt: (§1) In some cases, screening in the latter method (measuring prostaglandin production) is accomplished using an enzyme immunoassay (EIA) where COX systems include COX-1 or COX-2, an EIA reaction buffer, Heme, and either a control solution, such as NaOH, for control systems or inhibitor solutions of the nitroxyl donor in NaOH having a range of progressively increasing concentrations of the nitroxyl-donating compound. These systems are reacted with arachidonic acid for a period typically of about five to ten minutes. The COX reactions are stopped in each system, for example, by the addition of hydrochloric acid (HCl).
(§2) The relative amounts prostaglandins, such as PGF2α, in each system are measured with an EIA kit. The EIA measures the amounts of prostaglandins in the systems based on binding to an assay antibody. Binding is determined by absorbance, for example, absorbance at 405 nm, with a plate reader, such as a Perkin Elmer plate reader. High binding results in low absorbance indicating low inhibition, while low binding results in high absorbance indicating high inhibition.
(§3) Once the inhibitor and control systems are prepared they are diluted in the EIA buffer at various dilution ratios, such as 1:1000, 1:2000, and 1:4000 and added to wells of the plate. The plate also contains prostaglandin (PG) standard systems, non-specific binding (NSB) systems, background COX systems, and zero binding (B0) systems, which are used to calibrate the EIA. PG standard systems are prepared at various progressively increasing concentrations of PG, for example 15.6, 31.3, 62.5, 125, 250, 500, 1000, and 2000 PG/mL. Background COX systems contain either boiled COX-1 or COX-2 diluted in EIA reaction buffer. NSB, and B0 systems include only the EIA buffer. Prostaglandin screening acetylcholinase tracer (reconstituted in the EIA buffer) is added to each system. Prostaglandin screening antiserum (reconstituted in the EIA buffer) is added to each system other than the NSB system. Typically, the plate is incubated from several hours to a day, such as from 4 to 24 hours at room temperature (about 22° C.). Ellman's reagent is added to each system in each well and the plate is agitated, such as on an orbital shaker, and protected from light, for example by covering with aluminum foil, for about an hour. The plate is then read on a plate reader, such as a Perkin Elmer plate reader.
(§4) An average value for the absorbance of the NSB systems is determined and this absorbance is used to correct the reading of other systems for NSB (by subtracting the average NSB absorbance). An average value for the absorbance of background COX also is determined and absorbance is later used to correct other systems for background COX levels.
(§5) An average value for B0 is obtained and NSB corrected. Average values for absorbance of each PG standard system are obtained and NSB corrected. The percentage of prostanoid binding is determined by dividing the average NSB corrected absorbance (binding (B)) for each PG standard system by the average NSB corrected absorbance for B0 systems (percentage equals B/B0*100). A standard curve is prepared with % B/B0 on the y axis and the prostaglandin concentration (PG/mL) on the x axis. Then the average % B/B0 for the background, control, and inhibitor systems are determined for each concentration tested. The PG concentration for each of these systems is determined by finding the point on the standard curve that corresponds to the determined % B/B0, determining the corresponding PG concentration on the x axis, and multiplying this concentration by the dilution factor used to prepare the system. To correct for background COX the PG concentration of the background COX-1 or COX-2 systems are subtracted from the COX-1 and COX-2 inhibitor and control systems, respectively. The percentage of inhibition is determined dividing the PG concentration for inhibitor systems by the PG concentration for control systems and multiplying by 100. […]

Nitroxyl donation pH = type: physicochemical
Excerpt: “Nitroxyl donation pH” is the pH at which and above which a nitroxyl-donating compounds donates nitroxyl.
Further, compounds are easily tested for nitroxyl donation with routine experiments. Although it is impractical to directly measure whether nitroxyl is donated, several tests are accepted for determining whether a compound donates nitroxyl. For example, the compound of interest can be placed in solution, for example in water, in a sealed container. After sufficient time for disassociation has elapsed, such as from several minutes to several hours, the headspace gas is withdrawn and analyzed to determine its composition, such as by gas chromatography and/or mass spectroscopy. […] Nitroxyl donation also can be detected by exposing the target donor to metmyoglobin (Mb^3+). Nitroxyl reacts with Mb^3+ to form an Mb^2+—NO complex, which can be detected by changes in the ultraviolet/visible spectrum or by Electron Paramagnetic Resonance (EPR). […]
Testing for nitroxyl donation in some cases is performed at a range of pHs to determine the nitroxyl donation pH of the nitroxyl-donating compound. […] After the lowest pH at which nitroxyl donation occurs in a first set of tests is found, additional tests can be performed with narrower ranges of pH around the first determined nitroxyl donation pH to obtain a more specific nitroxyl donation pH. […]

COX-1 = molecular target: T2, COX-1 (Ovis aries, UniProt P05979); test: COX-1 inhibition, prostaglandin (PGF2α) enzyme immunoassay; type: biochemical
T2 construct: purchased Cayman Chemical #560101
T2 sequence (P05979 25-600): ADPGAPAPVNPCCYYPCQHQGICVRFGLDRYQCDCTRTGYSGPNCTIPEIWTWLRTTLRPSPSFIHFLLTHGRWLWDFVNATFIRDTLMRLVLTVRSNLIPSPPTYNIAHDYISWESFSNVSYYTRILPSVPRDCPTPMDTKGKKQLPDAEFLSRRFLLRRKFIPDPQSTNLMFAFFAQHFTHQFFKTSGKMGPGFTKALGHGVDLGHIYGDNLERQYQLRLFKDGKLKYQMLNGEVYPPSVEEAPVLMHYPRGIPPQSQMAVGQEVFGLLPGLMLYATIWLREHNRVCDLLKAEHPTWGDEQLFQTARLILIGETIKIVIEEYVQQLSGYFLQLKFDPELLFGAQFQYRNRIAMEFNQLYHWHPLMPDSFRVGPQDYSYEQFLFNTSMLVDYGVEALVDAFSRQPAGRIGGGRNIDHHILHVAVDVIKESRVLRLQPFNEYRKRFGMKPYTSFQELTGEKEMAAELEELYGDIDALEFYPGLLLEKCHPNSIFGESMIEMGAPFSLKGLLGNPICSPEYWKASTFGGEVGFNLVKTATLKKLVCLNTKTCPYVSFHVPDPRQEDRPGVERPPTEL
Excerpt: as §1, §2, §3, §4, §5

[1] = Example 3, nitroxyl donor concentration 25 μM
[2] = Example 3, nitroxyl donor concentration 50 μM
[3] = Example 3, nitroxyl donor concentration 75 μM
[4] = Example 3, nitroxyl donor concentration 100 μM
[5] = Example 3, nitroxyl donor concentration 1000 μM
[6] = Example 1, Angeli's salt concentration 0.001 μM, 1:2000 dilution
[7] = Example 1, Angeli's salt concentration 1.0 μM, 1:2000 dilution
[8] = Example 1, Angeli's salt concentration 10.0 μM, 1:2000 dilution
[9] = Example 1, Angeli's salt concentration 500.0 μM, 1:2000 dilution
[10] = Example 2, Angeli's salt concentration 0.100 μM, data below about 50 μM called unreliable
[11] = Example 2, Angeli's salt concentration 100.0 μM
[12] = Example 2, Angeli's salt concentration 500.0 μM
[13] = Example 2, Angeli's salt concentration 1000.0 μM

Percentage COX-2 inhibition (COX-2; [1]): 6.7%
Percentage COX-2 inhibition (COX-2; [2]): 59.5%
Percentage COX-2 inhibition (COX-2; [3]): 46.4%
Percentage COX-2 inhibition (COX-2; [4]): 62.2%
Percentage COX-2 inhibition (COX-2; [5]): 86.8%
nitroxyl donation pH (pH at which and above which nitroxyl is donated) (Nitroxyl donation pH): about 5.5
SMILES: CC(C)N[N+]([O-])=N[O-].[Na+] [IPA/NO, Na(CH3)2C(H)N(H)N(O)NO]
COX-2 inhibition, overall trend compared to Angeli's salt (COX-2; Example 3, 25 to 1000 μM): more effective inhibitor of COX-2 than Angeli's salt

pIC50 (COX-1; Example 1, read from FIG. 1): ~3.22
Percentage COX-1 Inhibition (COX-1; [6]): 0.0%
Percentage COX-1 Inhibition (COX-1; [7]): 0.0%
Percentage COX-1 Inhibition (COX-1; [8]): 0.0%
Percentage COX-1 Inhibition (COX-1; Example 1, Angeli's salt concentration 100.0 μM, 1:2000 dilution): 18.3%
Percentage COX-1 Inhibition (COX-1; [9]): 40.2%
Percentage COX-1 Inhibition (COX-1; Example 1, Angeli's salt concentration 1000.0 μM, 1:2000 dilution): 95.4%
COX-1 activity inhibited (COX-1; Example 1, concentrations from about 50 μM to about 100 μM): ≤ 19%
pIC50 (COX-1; Example 2, reasonable estimate): 3.60 to 3.70
Percentage COX-1 Inhibition (COX-1; Example 2, Angeli's salt concentration 0.001 μM, data below about 50 μM called unreliable): 97.5%
Percentage COX-1 Inhibition (COX-1; [10]): 24.7%
Percentage COX-1 Inhibition (COX-1; Example 2, Angeli's salt concentration 1.0 μM, data below about 50 μM called unreliable): 57.5%
Percentage COX-1 Inhibition (COX-1; Example 2, Angeli's salt concentration 50.0 μM): 16.4%
Percentage COX-1 Inhibition (COX-1; [11]): 45.7%
Percentage COX-1 Inhibition (COX-1; [12]): 62.5%
Percentage COX-1 Inhibition (COX-1; [13]): 68.6%
COX-1/COX-2 IC50 ratio (COX-2; Example 1): about 0.08
pIC50 (COX-2; Example 1, read from FIG. 1): ~4.30
Percentage COX-2 inhibition (COX-2; [6]): 0.0%
Percentage COX-2 inhibition (COX-2; [7]): 34.6%
Percentage COX-2 inhibition (COX-2; [8]): 28.8%
Percentage COX-2 inhibition (COX-2; Example 1, Angeli's salt concentration 100.0 μM, 1:2000 dilution, 100 µM): 100% and 99.2%
Percentage COX-2 inhibition (COX-2; [9]): 86.4%
pIC50 (COX-2; Example 2, reasonable estimate): ~4.30
Percentage COX-2 inhibition (COX-2; [10]): 98.9%
Percentage COX-2 inhibition (COX-2; [11]): 98%
Percentage COX-2 inhibition (COX-2; [12]): 105.7%
Percentage COX-2 inhibition (COX-2; [13]): 106%
Percentage COX-2 inhibition (COX-2; [1]): 5.4%
Percentage COX-2 inhibition (COX-2; [2]): 13.7%
Percentage COX-2 inhibition (COX-2; [3]): 49.2%
Percentage COX-2 inhibition (COX-2; [4]): 59.9%
Percentage COX-2 inhibition (COX-2; [5]): 60.4%
COX-2/COX-1 IC50 ratio (COX-2; one particular example (detailed description)): about 0.08
nitroxyl donation pH (pH at which and above which nitroxyl is donated) (Nitroxyl donation pH): about 3
SMILES: [Na+].[Na+].[O-][N+]([O-])=NO [Angeli's salt, Na2ON(O)NO]
